# Measurements reported in patent US20060183794A1, “Drug composition containing nf-kb inhibitor” (priority 2002, published 2006).
# Experiments:
# [1] = tested on: ATL cell lines (MT-1 and TL-Om1); experiment: Hoechst staining apoptosis assay, ATL cell lines; format: cell-based, human; conditions: 10 μg/ml, 72 hours
# Procedure: DHM2EQ was added to the ATL cell lines (MT-1 and TL-Om1) and a control cell line (K562) at a final concentration of 10 μg/ml, followed by incubation for 72 hours. Subsequently, apoptosis was examined by observing nuclear […] or fragmentation on Hoechst staining with a fluorescence microscope. Cells to which the solvent DMSO had been added in equal volume were also examined in the same manner.
# [2] = tested on: MM cell lines, KMM1, RPMI8226, and U266; experiment: MTT assay, proliferation of multiple myeloma cell lines; format: cell-based
# Procedure: Cells from the ATL cell lines (MT-1 and TL-Om1) and a control cell line (K562) were plated in 96-well plates at 1×10^5 cells/well and DHM2EQ was added at the desired final concentrations (2, 5, and 10 μg/ml). Cells to which the solvent DMSO had been added in equal volume (0 μg/ml) were used as […] incubation for 72 hours, cell viability was judged by the MTT assay. Relative MTT values were obtained as the ratio of the MMT values of DHM2EQ-treated cells to those of DHM2EQ-untreated cells, i.e., (MTT values of DHM2EQ-treated cells/MTT values of DHM2EQ-untreated cells)×100(%).
# DHM2EQ was added to the ATL cell lines (MT-1 and TL-Om1) and a control cell line (K562) at a final concentration of 10 μg/ml and the cells were incubated for 12, 24, 48, and 72 hours. The proliferation-inhibitory effect was examined by the MTT assay. Cells to which the solvent DMSO had been added in equal volume were used as controls. Relative MTT values were obtained in the same manner as the aforementioned (1).
# To investigate the influence of the DHMEQ concentrations on inhibition of cell proliferation, the cell viability was judged by using the MM cell lines, KMM1, RPMI8226, and U266 in the same method as in Example 5-(1). […]
# [3] = target: NF-κB (Homo sapiens, UniProt P19838+Q04206); experiment: Gel shift assay of constitutive NF-κB activation in multiple myeloma cell lines; format: cell-based; design: endogenous in cells; host or cells: MM cell lines KMM1, RPMI8226, U266
# Procedure: The ATL cell lines (MT-1 and TL-Om1) and the control cell lines (K562 and Jurkat+TNF), 2×10^6 cells each, were treated with 10 μg/ml DHM2EQ for 12 hours, and nuclear extract was prepared from each cell line. Likewise, nuclear extract was prepared also from the cell lines not treated with DHM2EQ. MT-1 and TL-Om1 are the cell lines transformed with HTLV-1; NF-κB is activated in these cell lines. K562 (myelocytic leukemia cell line) is a cell line in which constitutive NF-κB is not confirmed (a negative control), and Jurkat+TNF is a […] consensus oligomers (Promega) were end-labeled with [γ-^32P]-ATP and polynucleotide kinase (PNK) to prepare ^32P-labeled NF-κB probes.
# The equivalent of 2 μg of nuclear extract protein was mixed with NF-κB probes (the equivalent of 10,000 cpm) in a volume of 20 μl and reacted at room temperature for 30 min. The solution after the reaction was subjected to 7.5% polyacrylamide gel electrophoresis. The gel was then dried and exposed to an X-ray film.
# The MM cell lines, KMM1, RPMI8226, and U266 (2×10^6 cells each) were treated with 10 μg/ml of DHMEQ for 12 hours, and nuclear extract was prepared from each cell line. The gel shift assay was performed in the same method as in Example 4 and the inhibitory effect of DHMEQ on NF-κB was examined. […] The TNF-treated Jurkat (Jurkat+TNF) was used as the positive control.
# Next, the MM cell lines, KMM1, RPMI8226, and U266 were treated with 10 μg/ml DHMEQ for 12 hours, and nuclear extract was prepared from each cell line. The gel shift assay was performed in the same method as in Example 4 (1) and the time-course inhibitory effect on NF-κB was examined.
# NF-κB, sequence (Q04206 whole entry): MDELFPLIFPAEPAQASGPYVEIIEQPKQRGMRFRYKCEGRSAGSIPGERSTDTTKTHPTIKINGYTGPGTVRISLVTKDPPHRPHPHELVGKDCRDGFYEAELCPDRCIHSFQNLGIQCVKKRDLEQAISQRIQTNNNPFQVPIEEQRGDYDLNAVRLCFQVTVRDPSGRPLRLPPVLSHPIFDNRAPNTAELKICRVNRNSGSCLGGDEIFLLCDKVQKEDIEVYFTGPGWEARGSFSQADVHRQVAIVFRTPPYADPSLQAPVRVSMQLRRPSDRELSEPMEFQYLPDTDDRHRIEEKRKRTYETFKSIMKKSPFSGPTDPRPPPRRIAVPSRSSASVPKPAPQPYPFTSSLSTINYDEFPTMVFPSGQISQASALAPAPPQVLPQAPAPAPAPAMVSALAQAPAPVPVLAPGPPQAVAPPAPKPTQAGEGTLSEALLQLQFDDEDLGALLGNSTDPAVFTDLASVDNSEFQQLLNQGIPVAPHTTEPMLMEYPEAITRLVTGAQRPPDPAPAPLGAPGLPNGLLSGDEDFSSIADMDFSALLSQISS
# NF-κB, sequence (P19838 1-433 limits assumed): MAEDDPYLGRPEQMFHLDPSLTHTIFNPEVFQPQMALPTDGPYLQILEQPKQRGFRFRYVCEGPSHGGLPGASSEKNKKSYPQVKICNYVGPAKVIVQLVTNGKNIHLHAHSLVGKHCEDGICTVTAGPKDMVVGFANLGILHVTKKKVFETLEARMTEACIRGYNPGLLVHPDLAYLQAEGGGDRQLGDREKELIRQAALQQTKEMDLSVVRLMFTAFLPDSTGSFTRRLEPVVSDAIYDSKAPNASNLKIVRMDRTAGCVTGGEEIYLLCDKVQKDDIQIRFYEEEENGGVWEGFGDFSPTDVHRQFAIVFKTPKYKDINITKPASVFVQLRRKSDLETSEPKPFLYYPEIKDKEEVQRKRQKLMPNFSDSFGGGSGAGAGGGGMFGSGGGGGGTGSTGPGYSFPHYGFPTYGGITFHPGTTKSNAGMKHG
smiles,measurement,setting,value
"O=C(NC1=CC(=O)C2OC2C1O)c1ccccc1O (stereo not drawn) [DHMEQ, 5,6-epoxy-4-hydroxy-3-salicyloylamino-2-cyclohexenone]","apoptosis (nuclear fragmentation, Hoechst staining)",[1],apoptosis was induced
same,"cell proliferation, concentration dependence (MTT)",[2],suppressed in proportion to the DHMEQ concentrations
same,"cell proliferation, time course (MTT)",[2],suppressed in proportion to the DHMEQ treatment time
same,signals by NF-κB (gel shift),"[3]; KMM1, RPMI8226, U266, 10 μg/ml DHMEQ, 12 hours",lost
same,persistence of inhibition of NF-κB activation,"[3]; MM cell lines, 10 μg/ml",sustained even after a lapse of 16 hours
same,"activation of NF-κB, time course (gel shift)","[3]; MM cell lines, 10 μg/ml, 1 hour after treatment",almost inhibited
